According to the CheMixHub viscosity set:

Assay: xn = mol fraction of the nth substance listed

O=C1CCCC1 + CNC=O
viscosity [mPa·s], 101 kPa
Conditions	x2 = 0.0865	x2 = 0.1756	x2 = 0.2675	x2 = 0.3623	x2 = 0.4601	x2 = 0.5611	x2 = 0.6654	x2 = 0.7732	x2 = 0.8847
303.15 K	1.041	1.104	1.165	1.226	1.293	1.355	1.412	1.467	1.532
308.15 K	0.9797	1.035	1.09	1.144	1.204	1.258	1.309	1.358	1.414
313.15 K	0.9075	0.9589	1.01	1.059	1.114	1.164	1.21	1.255	1.307
318.15 K	0.8512	0.8981	0.9442	0.9895	1.039	1.085	1.127	1.167	1.215

CC(O)CO (configuration not stated) + CO
viscosity [mPa·s], 101 kPa
Conditions	x1 = 0.1	x1 = 0.2	x1 = 0.3	x1 = 0.4	x1 = 0.5	x1 = 0.6	x1 = 0.7	x1 = 0.8	x1 = 0.9
298.15 K	0.8967	1.436	2.244	3.432	5.254	7.972	12.13	18.51	28.39
308.15 K	0.7629	1.187	1.814	2.731	4.083	6.016	8.726	12.53	17.88
318.15 K	0.6278	0.9689	1.457	2.129	3.054	4.33	6.037	8.242	11.2

Cc1ccccn1 + CO
101 kPa
Conditions	viscosity [mPa·s]
298.23 K, x1 = 0.4451	0.774
298.23 K, x1 = 0.5511	0.782
298.25 K, x1 = 0.1201	0.641
298.28 K, x1 = 0.6483	0.784
298.28 K, x1 = 0.8299	0.76
303.15 K, x1 = 0.2351	0.671
303.16 K, x1 = 0.1201	0.6
303.22 K, x1 = 0.6483	0.733
303.22 K, x1 = 0.8299	0.714
303.25 K, x1 = 0.4451	0.722
303.26 K, x1 = 0.5511	0.729
308.17 K, x1 = 0.1201	0.562
308.23 K, x1 = 0.6483	0.686
308.23 K, x1 = 0.8299	0.669
308.25 K, x1 = 0.5511	0.682
308.26 K, x1 = 0.4451	0.676
308.38 K, x1 = 0.2351	0.625
313.21 K, x1 = 0.2351	0.587
313.22 K, x1 = 0.1201	0.522
313.27 K, x1 = 0.6483	0.645
313.27 K, x1 = 0.8299	0.631
313.28 K, x1 = 0.4451	0.633
313.28 K, x1 = 0.5511	0.641
318.25 K, x1 = 0.2351	0.55
318.26 K, x1 = 0.1201	0.49
318.29 K, x1 = 0.6483	0.606
318.29 K, x1 = 0.8299	0.592
318.35 K, x1 = 0.5511	0.601
318.36 K, x1 = 0.4451	0.594

ClC=C(Cl)Cl + CO
viscosity [mPa·s], 101 kPa
Conditions	293.15 K	303.15 K	313.15 K	323.15 K
x2 = 0.017	0.554	0.507	0.466	0.429
x2 = 0.057	0.56	0.509	0.466	0.427
x2 = 0.152	0.58	0.523	0.476	0.435
x2 = 0.1523	–	0.56	0.524	0.473
x2 = 0.286	0.605	0.541	0.485	0.441
x2 = 0.3071	–	0.55	0.518	0.4735
x2 = 0.446	–	0.54	0.511	0.473
x2 = 0.562	0.656	0.576	0.508	0.452
x2 = 0.5963	–	0.53	0.505	0.474
x2 = 0.6	0.667	0.581	0.513	0.455
x2 = 0.699	0.674	0.59	0.519	0.461
x2 = 0.72	0.67	0.587	0.517	0.458
x2 = 0.756	–	0.518	0.497	0.475
x2 = 0.78	0.663	0.578	0.508	0.45
x2 = 0.9011	–	0.508	0.492	0.476
x2 = 0.92	0.62	0.543	0.477	0.423

O=C1CCCC1 + COC(=O)c1ccccc1
viscosity [mPa·s], 101 kPa
Conditions	x2 = 0.0744	x2 = 0.1523	x2 = 0.2344	x2 = 0.3214	x2 = 0.418	x2 = 0.5133	x2 = 0.6186	x2 = 0.737	x2 = 0.8638
303.15 K	1.058	1.115	1.176	1.223	1.284	1.339	1.407	1.481	1.573
313.15 K	0.91	0.946	0.984	1.026	1.071	1.116	1.164	1.218	1.285

ClC=C(Cl)Cl + COCCO
viscosity [mPa·s], 101.33 kPa
Conditions	x1 = 0.1175	x1 = 0.2132	x1 = 0.3211	x1 = 0.4746	x1 = 0.5328	x1 = 0.6149	x1 = 0.7063	x1 = 0.8042	x1 = 0.9056
303.15 K	1.317	1.181	1.041	0.86	0.804	0.731	0.659	0.597	0.546
313.15 K	1.074	0.981	0.88	0.746	0.703	0.648	0.591	0.543	0.504

NC1CCCCC1 + COCCO
308.15 K, 101 kPa
Conditions	viscosity [mPa·s]
x2 = 0.1393	1.314
x2 = 0.267	1.303
x2 = 0.3844	1.298
x2 = 0.4927	1.29
x2 = 0.593	1.294
x2 = 0.6861	1.283
x2 = 0.7727	1.263
x2 = 0.8536	1.254
x2 = 0.9291	1.242

ClC=C(Cl)Cl + COc1ccccc1
303.15 K, 101.3 kPa
Conditions	viscosity [mPa·s]
x2 = 0.1234	0.523
x2 = 0.1791	0.541
x2 = 0.2335	0.561
x2 = 0.2818	0.577
x2 = 0.4018	0.623
x2 = 0.5204	0.672
x2 = 0.5501	0.682
x2 = 0.648	0.73
x2 = 0.7243	0.765
x2 = 0.8135	0.814

NC1CCCCC1 + CS(C)=O
303.15 K, 101 kPa
Conditions	viscosity [mPa·s]
x2 = 0.1	1.571
x2 = 0.1807	1.518
x2 = 0.2707	1.481
x2 = 0.3707	1.467
x2 = 0.4679	1.47
x2 = 0.5654	1.497
x2 = 0.6703	1.542
x2 = 0.7894	1.611
x2 = 0.8913	1.692

O=C(CO)[C@@H](O)[C@H](O)[C@H](O)CO + CS(C)=O
viscosity [mPa·s], 101 kPa
Conditions	x1 = 0.04904	x1 = 0.07411	x1 = 0.106	x1 = 0.1269	x1 = 0.151	x1 = 0.1722	x1 = 0.1979	x1 = 0.2243
298.15 K	3.98	6.037	10.34	14.99	23.48	35.39	59.46	104.7
308.15 K	3.096	4.529	7.33	10.21	15.13	21.64	34.14	55.88
318.15 K	2.48	3.507	5.442	7.283	10.35	14.17	21.19	32.62

O=C(CO)[C@@H](O)[C@H](O)[C@H](O)CO + C[N+](C)(C)CCO.[Cl-]
100 kPa, x2 = 0.6
Conditions	viscosity [mPa·s]
313.2 K	1645
318.2 K	1057

Cc1ccccn1 + Cc1ccccc1
viscosity [mPa·s], 101 kPa
Conditions	x2 = 0.2	x2 = 0.4	x2 = 0.6	x2 = 0.8
293.15 K	0.76	0.714	0.668	0.624
313.15 K	0.593	0.558	0.525	0.494

NC1CCCCC1 + Cc1ccccc1
303.15 K, 101 kPa
Conditions	viscosity [mPa·s]
x2 = 0.1242	1.381
x2 = 0.2292	1.177
x2 = 0.3268	1.013
x2 = 0.4121	0.8791
x2 = 0.5347	0.7115
x2 = 0.6445	0.6079
x2 = 0.7365	0.5443
x2 = 0.8431	0.4838
x2 = 0.922	0.4617

ClC=C(Cl)Cl + ClC(Cl)(Cl)Cl
303.15 K, 101.33 kPa
Conditions	viscosity [mPa·s]
x1 = 0.2969	0.699
x1 = 0.7481	0.555
x1 = 0.7605	0.551
x1 = 0.8498	0.539
x1 = 0.9286	0.526

ClC=C(Cl)Cl + ClC(Cl)Cl
303.15 K, 101.33 kPa
Conditions	viscosity [mPa·s]
x1 = 0.1451	0.517
x1 = 0.2431	0.521
x1 = 0.3368	0.521
x1 = 0.4687	0.521
x1 = 0.5793	0.519
x1 = 0.6718	0.519
x1 = 0.7912	0.519
x1 = 0.868	0.518
x1 = 0.9526	0.518

O=C1CCCC1 + Clc1ccccc1
298.15 K, 101 kPa
Conditions	viscosity [mPa·s]
x2 = 0.0165	1.122
x2 = 0.0498	1.117
x2 = 0.1006	1.108
x2 = 0.1542	1.097
x2 = 0.2087	1.084
x2 = 0.266	1.068
x2 = 0.3245	1.05
x2 = 0.3841	1.023
x2 = 0.4488	0.993
x2 = 0.5148	0.959
x2 = 0.5836	0.92
x2 = 0.6542	0.882
x2 = 0.739	0.835
x2 = 0.8057	0.802
x2 = 0.8869	0.769
x2 = 0.9704	0.745

C1COCCN1 + NCCO
viscosity [mPa·s], 101 kPa
Conditions	293.15 K	303.15 K	313.15 K	323.15 K
x1 = 0.06557	20.7	–	–	–
x1 = 0.06901	–	–	8.726	–
x1 = 0.07	21.21	13.58	8.71	6.21
x1 = 0.2	14.61	9.65	6.44	4.68
x1 = 0.2273	–	–	6.709	–
x1 = 0.2293	14.65	–	–	–
x1 = 0.4	9.19	6.31	4.57	3.36
x1 = 0.4108	–	–	4.506	–
x1 = 0.4137	9.258	–	–	–
x1 = 0.6	5.53	3.97	2.94	2.24
x1 = 0.616	5.651	–	–	–
x1 = 0.6175	–	–	3.337	–
x1 = 0.8608	3.673	–	–	–
x1 = 0.8622	–	–	2.454	–
x1 = 0.9	3.22	2.54	1.98	1.61
